Measured values from PMC12189931, “In Vitro Effects of Some Antibiotics on Purified β-Glucosidases from Rat Liver and Kidney Tissues” (Antibiotics, 2025).
Several values for one entry are separate records, joined by “and”; a condition that tells them apart may be missing. Equal entries are not always repeated. Entries after “also recorded” stand apart in the source; their conditions may differ.

Key:
rat liver BGL = molecular target: T1, rat liver BGL (Rattus norvegicus, UniProt A0A0G2JVP8); assay: In vitro inhibition of β-glucosidase purified from rat liver (p-NPG substrate); format: biochemical; conditions: for effect on rat liver BGL activity: tested concentration ranges 5–250 mM depending on antibiotic
T1 construct: For this purpose, BGLs were purified from rat liver and kidney tissues; from tissue; host or cells: rat liver
T1 sequence (A0A0G2JVP8 1-469): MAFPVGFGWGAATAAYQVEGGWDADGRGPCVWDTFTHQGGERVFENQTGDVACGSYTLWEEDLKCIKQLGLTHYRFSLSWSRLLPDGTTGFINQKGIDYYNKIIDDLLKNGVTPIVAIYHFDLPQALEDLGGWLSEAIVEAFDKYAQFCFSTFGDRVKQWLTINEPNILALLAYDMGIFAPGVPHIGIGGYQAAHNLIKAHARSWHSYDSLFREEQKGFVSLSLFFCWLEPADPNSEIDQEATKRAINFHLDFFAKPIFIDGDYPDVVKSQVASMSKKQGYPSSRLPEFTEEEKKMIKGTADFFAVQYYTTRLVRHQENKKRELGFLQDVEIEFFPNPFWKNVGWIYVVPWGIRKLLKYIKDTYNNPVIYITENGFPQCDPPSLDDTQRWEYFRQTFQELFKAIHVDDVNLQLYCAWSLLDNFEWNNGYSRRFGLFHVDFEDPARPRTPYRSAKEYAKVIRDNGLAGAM
Protocol: (§1) Rat liver and kidney BGL activities were determined spectrophotometrically using a ThermoFisher Scientific Multiskan™ FC microplate (Thermo Fisher Scientific, Waltham, MA, USA). p-NPG dissolved in 50 mM of pH 5.5 Na–Ac buffer was used as the substrate. In this method, enzyme activity was determined by photometrically measuring the determination of p-nitrophenol (p-NP) released in the presence of BGLs spectrophotometrically at 405 nm. Calculations were made with the standard curve of p-NP (Cat. No. 241326, Sigma) prepared at 405 nm. One enzyme unit (EU) was defined as the amount of μmol p-nitrophenol released per minute in the reaction medium under the specified experimental conditions.
(§2) The half-maximal inhibitory concentration (IC50) of antibiotics was determined using a constant concentration of p-NPG of 1.75 mM. At least ten different concentration ranges of each antibiotic were tested to evaluate the in vitro effects of ampicillin (5–250 mM), amoxicillin–clavulanate (5–70 mM), cefuroxime (5–150 mM), cefazolin sodium (10–165 mM), ceftriaxone (10–160 mM), and gentamicin (5–50 mM). Enzyme activity was measured in the presence of different antibiotic concentrations, and BGL activity in the medium without antibiotics, which was accepted as the control group, was determined as 100% reference value. Enzyme activity results were expressed as % activity and the inhibitory concentration (IC50) that reduced enzyme activity by 50% was calculated using GraphPad Prism software. All experiments were performed in three replicates for each antibiotic concentration.
(§3) Lineweaver–Burk double-reciprocal plots were used to determine the inhibitory effect of antibiotics and the inhibition mechanisms. The curve obtained when there was no inhibitor in the reaction medium was accepted as the control (I0); the intersection points of the control curve with the lines drawn in the presence of the inhibitor at two different concentrations were analyzed. In line with these intersection points, the relevant inhibition types were determined, and the inhibitory constants (Ki) of the inhibitors were calculated.

[1] = tested on: 6-phosphogluconate dehydrogenase (6PGD) purified from rat lung tissue; set-up: method as in PMID 26758606; conditions: cited from earlier work
[2] = tested on: glucose-6-phosphate dehydrogenase (G6PD) purified from rat lung tissue; set-up: method as in PMID 26758606; conditions: cited from earlier work
[3] = tested on: glutathione reductase (GR) purified from rat lung tissue; set-up: method as in PMID 26758606; conditions: cited from earlier work
rat kidney BGL = molecular target: T2, rat kidney BGL (Rattus norvegicus, UniProt A0A0G2JVP8); assay: In vitro inhibition of β-glucosidase purified from rat kidney (p-NPG substrate); format: biochemical; conditions: for Ki / inhibition type / IC50: Kidney BGL; for Ki: Lineweaver–Burk plots; for inhibition type: Lineweaver–Burk, NI: No observed inhibition; for IC50: p-NPG 1.75 mM, GraphPad Prism; for effect on rat kidney BGL activity: tested concentration ranges 5–250 mM depending on antibiotic
T2 construct: For this purpose, BGLs were purified from rat liver and kidney tissues; from tissue; host or cells: rat kidney
T2 sequence (A0A0G2JVP8 1-469): T1 sequence (A0A0G2JVP8 1-469)
Protocol: as §1, §2, §3

[4] = tested on: G6PD purified from sheep erythrocytes; set-up: method as in PMID 12530481; conditions: cited from earlier work
[5] = molecular target: glucose-6-phosphate dehydrogenase (G6PD) purified from human erythrocytes; set-up: method as in PMID 10712835; conditions: cited from earlier work; for IC50: G6PD purified from human erythrocytes
[6] = tested on: glutathione reductase (GR) purified from mouse liver; set-up: method as in PMID 32196862; conditions: cited from earlier work
[7] = molecular target: glutathione reductase (GR) purified from mouse kidney tissue; set-up: method as in PMID 32196862; conditions: cited from earlier work
[8] = tested on: glutathione reductase (GR) purified from human erythrocytes; set-up: method as in PMID 15895687; conditions: cited from earlier work

In the case of `CO/N=C(\C(=O)N[C@@H]1C(=O)N2C(C(=O)O)=C(COC(N)=O)CS[C@H]12)c1ccco1` [Cefuroxime], the “effect on rat liver BGL activity” value (rat liver BGL) is listed as “did not show a significant inhibitory effect”, the inhibition type [1] is listed as “noncompetitively” and the inhibition type [2] is listed as “noncompetitively”. The inhibition type [3] was “noncompetitively”, the Ki (rat kidney BGL) was 18.7 ± 12.7 mM and the “inhibition type” value (rat kidney BGL) was “Uncompetitive”. For the same compound, the IC50 (rat kidney BGL) was 76.9 mM.
For `CO/N=C(\C(=O)N[C@@H]1C(=O)N2C(C(=O)O)=C(CSc3nc(=O)c(=O)[nH]n3C)CS[C@H]12)c1csc(N)n1` [Ceftriaxone], the “effect on rat liver BGL activity” value (rat liver BGL) was “did not show a significant inhibitory effect” and the “effect on rat kidney BGL activity” value (rat kidney BGL) was “did not reduce kidney BGL activity; also recorded: did not significantly inhibit; also recorded: did not exhibit inhibitory effects”.
In the case of gentamicin sulfate, the inhibition type [4] is listed as “noncompetitively” and the IC50 [5] is listed as 12 mM.
In the case of `CC1(C)S[C@@H]2[C@H](NC(=O)[C@H](N)c3ccccc3)C(=O)N2[C@H]1C(=O)O` [Ampicillin], the “loss in liver BGL activity” value (rat liver BGL; 40 mM ampicillin in the medium) is reported as 10%, the Ki (rat liver BGL; Liver BGL, Lineweaver–Burk plots) is reported as 14.3 ± 3.35 mM and the “inhibition type” value (rat liver BGL; Liver BGL, Lineweaver–Burk, NI: No observed inhibition) is reported as “competitively; also recorded: Competitive”. For the same compound, the IC50 (rat liver BGL; Liver BGL, p-NPG 1.75 mM, GraphPad Prism) was 70 mM and 69.6 mM, the Ki (rat kidney BGL) was 28.4 ± 6.35 mM and the “inhibition type” value (rat kidney BGL) was “noncompetitively; also recorded: Noncompetitive”. For the same compound, the IC50 (rat kidney BGL) was 25 mM and 25.3 mM.
For `CC1(C)S[C@@H]2[C@H](NC(=O)[C@H](N)c3ccc(O)cc3)C(=O)N2[C@H]1C(=O)O` [amoxicillin], the “inhibition / inhibition type” value [6] is listed as “competitive”, the IC50 [7] is listed as 86 mM and the “inhibition / inhibition type” value [7] is listed as “noncompetitive”.
In the case of `CNC(C)C1CCC(N)C(OC2C(N)CC(N)C(OC3OCC(C)(O)C(NC)C3O)C2O)O1` (centres unmarked) [Gentamicin], the “effect on rat liver BGL activity” value (rat liver BGL; listed as gentamicin) is given as “did not show a significant inhibitory effect; also recorded: increased enzyme activity; also recorded: no inhibitory effect”, the inhibition type [1] is given as “competitively” and the “effect on enzyme activity” value [8] is given as “increase the activity”. The inhibition type [2] was “competitively”, the inhibition type [3] was “competitively” and the “inhibition / inhibition type” value [6] was “noncompetitive”. The “inhibition / inhibition type” value [7] was “did not inhibit”, the “effect on rat kidney BGL activity” value (rat kidney BGL) was “did not reduce kidney BGL activity” and the “effect on rat kidney BGL activity” value (rat kidney BGL; listed as gentamicin) was “did not significantly inhibit; also recorded: did not exhibit inhibitory effects; also recorded: no effect on enzyme activity”.
For `CO/N=C(\C(=O)N[C@@H]1C(=O)N2C(C(=O)O)=C(COC(N)=O)CS[C@H]12)c1ccco1` [sodium cefuroxime], the IC50 [5] is listed as 6.7 mM.
In the case of `Cc1nnc(SCC2=C(C(=O)O)N3C(=O)[C@@H](NC(=O)Cn4cnnn4)[C@H]3SC2)s1` [Cefazolin sodium], the “effect on rat liver BGL activity” value (rat liver BGL) is listed as “did not show a significant inhibitory effect”, the “inhibition / inhibition type” value [6] is listed as “did not inhibit” and the “inhibition / inhibition type” value [7] is listed as “did not inhibit”. The “inhibition type” value (rat kidney BGL) was “Noncompetitive”, the “inhibition type” value (rat kidney BGL; listed as cefazolin sodium) was “noncompetitively” and the IC50 (rat kidney BGL) was 98.8 mM. For the same compound, the inhibition type ([5]; human erythrocyte G6PD) was “noncompetitive”.
